Where “and” joins values, the source holds several entries; their conditions need not be identical. Equal values may be shown once.
Key:
Experiment in all cases: greenhouse post-emergence herbicidal test
[1] = system: ECHCG; format: in vivo, Echinochloa crus-galli; set-up: key to herbicidal activity against ECHCG found / herbicidal activity against ECHCH found: scale 0 to 100; settings: post emergence
Outline: (§1)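 Greenhouse pots, loamy sand substrate (~4.6% humus, ~69.9% sand). Spray applied once plants reached 1–15 cm. Scoring 0–100, day 20.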

[2] = system: PHACA; format: in vivo
Experimental: (§2) The culture containers used were plastic pots containing medium loamy sand with approximately 4.6% of humus and 69.9% sand as substrate. The seeds of the test plants were sown separately for each species.
(§3) For the post-emergence treatment, the test plants were grown to a plant height of from 1 to 15 cm, depending on the plant habit, and only then treated with the active compounds which had been suspended or emulsified in water. To this end, the test plants were either sown directly, and grown in the same containers, or they were first grown separately as seedlings and transplanted into the test containers a few days prior to treatment.
(§4) Depending on the species, the plants were kept at 10-25° C. and 20-35° C., respectively.
(§5) The test period extended over 1 to 3 weeks. During this time, the plants were tended and their response to the individual treatments was evaluated 20 days after treatment except mentioned otherwise.
(§6) Evaluation was carried out using a scale from 0 to 100. 100 means no emergence of the plants, or complete destruction of at least the above-ground parts, and 0 means no damage or normal course of growth.
(§7) The respective stated components A and B, and, if appropriate, C, were formulated as a 10% by weight strength emulsion concentrate and, with addition of the amount of solvent system, introduced into the spray liquor used for applying the active compound. In the examples, the solvent used was water.
(§8) In the examples below, using the method of S. R. Colby (1967) “Calculating synergistic and antagonistic responses of herbicide combinations”, Weeds 15, p. 22 ff., the value E, which is expected if the activity of the individual active compounds is only additive, was calculated. E=X+Y−(X·Y/100)

[3] = system: AMBEL; format: in vivo, Ambrosia artemisiifolia; set-up: key: rating on a scale from 0 to 100
Outline: as §1

[4] = system: STEME; format: in vivo, Stellaria media; set-up: key: scale 0 to 100
Outline: as §1

[5] = system: AMARE; format: in vivo, Amaranthus retroflexus
Outline: as §1

[6] = system: SEBEX; format: in vivo, Sesbania exaltata; settings: application rate a.i.: I.1 31.25 g/ha
Experimental: as §2, §3, §4, §5, §6, §7, §8

[7] = system: POLPE; format: in vivo, Persicaria maculosa; set-up: key: scale 0 to 100
Experimental: as §2, §3, §4, §5, §6, §7, §8

[8] = a.i. g/ha: I.1 20.8, B.67 62.5, 20 days after treatment
[9] = a.i. g/ha: I.1 31.25, B.67 125, 20 days after treatment
[10] = a.i. g/ha: I.1 20.8, B.192 62.5, 20 days after treatment
[11] = application rate a.i.: I.1 31.25 g/ha, B.139 (pyroxasulfone) 12.5 g/ha, alone or as mixture (composition 1.139)
[12] = 6 days after treatment, g/ha a.i.: I.1 31.25, B.96 35, mixture 31.25+35
[13] = a.i. g/ha: I.1 31.25, B.190 62.5, 20 days after treatment

O=C(O)c1cc(C2CC2)nc2onc(C3CC3)c12 [I.1]
herbicidal activity against ECHCG found ([1]; I.1 15.62 g/ha, B.95 1 g/ha a.i.): 10
herbicidal activity against ECHCG found ([1]; I.1 31.25 g/ha, B.103 7.5 g/ha a.i.): 10
herbicidal activity against ECHCG found ([1]; I.1 31.25 g/ha, B.167 125 g/ha a.i.): 10
herbicidal activity against ECHCG found ([1]; I.1 62.5 g/ha, B.95 2 g/ha a.i.): 55
herbicidal activity against ECHCH found ([1]; I.1 125 g/ha a.i.): 85
herbicidal activity against ECHCG found [1, 8]: 30%
herbicidal activity against ECHCG found ([1]; a.i. g/ha: I.1 62.5, B.67 62.5, 20 days after treatment): 65%
herbicidal activity against ECHCG found ([1]; a.i. g/ha: I.1 62.5, B.79 25, 20 days after treatment): 65%
herbicidal activity against ECHCG found ([1]; application rate a.i.: I.1 31.25 g/ha, B.40 (imazethapyr) 7.5 g/ha, alone or as mixture (composition 1.40)): 0
herbicidal activity against ECHCG found ([1]; application rate a.i.: I.1 250 g/ha, B.193 15 g/ha, alone or as mixture (composition 1.193)): 95
herbicidal activity against PHACA found [2, 9]: 0%
herbicidal activity against PHACA found ([2]; a.i. g/ha: I.1 62.5, B.67 125, 20 days after treatment): 35%
herbicidal activity against AMBEL found ([3]; 31.25 g/ha a.i.): 85
herbicidal activity against AMBEL found ([3]; I.1 alone 125 g/ha a.i.): 65
herbicidal activity against AMBEL found [3, 10]: 30%
herbicidal activity against AMBEL found ([3]; application rate a.i.: I.1 31.25 g/ha, B.100 (isoxaflutole) 12.5 g/ha, alone or as mixture (composition 1.100)): 90
herbicidal activity against AMBEL found [3, 11]: 65
herbicidal activity against AMBEL found ([3]; application rate a.i.: I.1 31.25 g/ha, B.84 (paraquat-dichloride) 17.5 g/ha, alone or as mixture (composition 1.84)): 65
herbicidal activity against AMBEL found ([3]; application rate a.i.: I.1 62.5 g/ha, B.100 (isoxaflutole) 12.5 g/ha, alone or as mixture (composition 1.100)): 90
herbicidal activity against AMBEL found ([3]; applied alone at 31.25 g/ha a.i.): 75
herbicidal activity against AMBEL found ([3]; single active, 15.62 g/ha a.i.): 0
herbicidal activity against AMBEL found ([3]; single active, 15.625 g/ha a.i.): 0
herbicidal activity against STEME found ([4]; 31.25 g/ha a.i.): 70
herbicidal activity against STEME found ([4]; 62.5 g/ha a.i.): 65
herbicidal activity against STEME found [4, 12]: 60
herbicidal activity against STEME found ([4]; I.1 15.62 g/ha, B.103 15 g/ha a.i.): 60
herbicidal activity against STEME found ([4]; I.1 15.62 g/ha, B.89 25 g/ha a.i.): 0
herbicidal activity against STEME found ([4]; I.1 31.25 g/ha, B.89 12.5 g/ha a.i.): 0
herbicidal activity against STEME found ([4]; I.1 31.25 g/ha, B.89 25 g/ha a.i.): 0
herbicidal activity against STEME found ([4]; I.1 alone 31.25 g/ha a.i.): 30
herbicidal activity against STEME found ([4]; a.i. g/ha: I.1 2.3, B.67 62.5, 20 days after treatment): 0%
herbicidal activity against STEME found ([4]; a.i. g/ha: I.1 6.9, B.67 62.5, 20 days after treatment): 0%
herbicidal activity against STEME found ([4]; a.i. g/ha: I.1 15.6, B.67 125, 20 days after treatment): 0%
herbicidal activity against STEME found [4, 8]: 50%
herbicidal activity against STEME found [4, 13]: 70%
herbicidal activity against STEME found [4, 9]: 70%
herbicidal activity against STEME found ([4]; a.i. g/ha: I.1 31.25, B.67 125, 20 days after treatment, sub-table r36-r43): 70%
herbicidal activity against STEME found ([4]; a.i. g/ha: I.1 62.5, B.191 225, 20 days after treatment): 85%
herbicidal activity against AMARE found ([5]; a.i. g/ha: I.1 15.6, B.190 62.5, 20 days after treatment): 30%
herbicidal activity against AMARE found [5, 10]: 70%
herbicidal activity against AMARE found [5, 13]: 35%
herbicidal activity against AMARE found ([5]; a.i. g/ha: I.1 31.25, B.76 225, 20 days after treatment): 90%
herbicidal activity against AMARE found ([5]; a.i. g/ha: I.1 31.25, bentazon Na 125, 20 days after treatment): 35%
herbicidal activity against SEBEX, found ([6]; B.139 (pyroxasulfone) 25 g/ha, alone or as mixture (composition 1.139)): 80
herbicidal activity against SEBEX, found ([6]; B.87 (carfentrazone-ethyl) 1.75 g/ha, alone or as mixture (composition 1.87)): 75
herbicidal activity against POLPE found ([7]; 31.25 g/ha a.i.): 45 and 70
herbicidal activity against POLPE found [7, 12]: 10
herbicidal activity against POLPE found [7, 11]: 30

— patent publication US10881110B2, “Herbicidal compositions comprising isoxazolo[5,4-b]pyridines” (BASF SE, priority 2014, dated 2021)
